Measured values as given in publication PMC5733700 (Bioorganic & medicinal chemistry, 2017).

How the values were obtained:
BRD2-BD1 (74–194) = BRD2-BD1 (74–194) (Homo sapiens, UniProt P25440); assay: Isothermal titration calorimetry; assay type: binding; conditions: 15 °C, no DMSO in buffer
BRD2-BD2 (348–455) = BRD2-BD2 (348–455) (Homo sapiens, UniProt P25440); assay: Isothermal titration calorimetry; assay type: binding; conditions: 15 °C, no DMSO in buffer
BJ cells = assay: Non-specific cytotoxicity, BJ control cell line; assay type: cell-based; conditions: control immortalized fibroblast cell line; 3 days exposure
HEK293 cells = assay: Non-specific cytotoxicity, HEK293 control cell line; assay type: cell-based; conditions: control embryonic kidney cell line; 3 days exposure
HEPG2 cells = assay: Non-specific cytotoxicity, HEPG2 control cell line; assay type: cell-based; conditions: control hepatocarcinoma cell line; 3 days exposure

BRD2-BD1 (74–194), sequence (P25440 74-194): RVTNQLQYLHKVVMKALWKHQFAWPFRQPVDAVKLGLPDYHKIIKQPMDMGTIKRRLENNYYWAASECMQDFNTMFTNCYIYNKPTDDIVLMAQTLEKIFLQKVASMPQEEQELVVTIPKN
BRD2-BD2 (348–455), sequence (P25440 348-455): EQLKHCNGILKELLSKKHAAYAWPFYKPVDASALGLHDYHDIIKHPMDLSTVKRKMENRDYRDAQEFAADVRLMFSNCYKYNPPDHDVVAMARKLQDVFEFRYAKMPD

Structure (SMILES) | ITC ΔG, BRD2 BD1 (BRD2-BD1 (74–194)) | ITC ΔH, BRD2 BD1 (BRD2-BD1 (74–194)) | ITC −TΔS, BRD2 BD1 (BRD2-BD1 (74–194)) | ITC ΔG, BRD2 BD2 (BRD2-BD2 (348–455)) | ITC ΔH, BRD2 BD2 (BRD2-BD2 (348–455)) | ITC −TΔS, BRD2 BD2 (BRD2-BD2 (348–455)) | Cytotoxicity EC50, BJ (BJ cells) | Cytotoxicity EC50, HEK293 (HEK293 cells) | Cytotoxicity EC50, HEPG2 (HEPG2 cells)
CC(=O)N1c2ccc(-c3cc[nH]c3)cc2[C@H](NC(=O)OC(C)C)C[C@@H]1C [Compound 14, Isopropyl ((2S,4R)-1-acetyl-2-methyl-6-(1H-pyrrol-3-yl)-1,2,3,4-tetrahydroquinolin-4-yl)carbamate] | -9.28 kcal/mol | -7.33 kcal/mol | -1.95 kcal/mol | -10.15 kcal/mol | -7.01 kcal/mol | -3.32 kcal/mol |  |  | 
CC(=O)N1c2ccc(-c3cccs3)cc2[C@H](NC(=O)OC(C)C)C[C@@H]1C [Compound 10, Isopropyl ((2S,4R)-1-acetyl-2-methyl-6-(thiophen-2-yl)-1,2,3,4-tetrahydroquinolin-4-yl)carbamate] | -9.52 kcal/mol | -8.27 kcal/mol | -1.25 kcal/mol | -10.12 kcal/mol | -7.18 kcal/mol | -2.94 kcal/mol |  |  | 
CC(=O)N1c2ccc(-c3ccco3)cc2[C@H](NC(=O)OC(C)C)C[C@@H]1C [Compound 9, Isopropyl ((2S,4R)-1-acetyl-6-(furan-2-yl)-2-methyl-1,2,3,4-tetrahydroquinolin-4-yl)carbamate] | -7.47 kcal/mol | -7.27 kcal/mol | -0.2 kcal/mol |  |  |  | did not exhibit cytotoxicity at the highest concentrations tested | did not exhibit cytotoxicity at the highest concentrations tested | did not exhibit cytotoxicity at the highest concentrations tested
CC(=O)N1c2ccc(-c3ccsc3)cc2[C@H](NC(=O)OC(C)C)C[C@@H]1C [Compound 13, Isopropyl ((2S,4R)-1-acetyl-2-methyl-6-(thiophen-3-yl)-1,2,3,4-tetrahydroquinolin-4-yl)carbamate] | -9.43 kcal/mol | -7.69 kcal/mol | -1.74 kcal/mol | -10.25 kcal/mol | -6.92 kcal/mol | -3.33 kcal/mol |  |  | 
Cc1sc2c(c1C)C(c1ccc(Cl)cc1)=N[C@@H](CC(=O)OC(C)(C)C)c1nnc(C)n1-2 [Compound 1, (+)-JQ1, reference compound] |  | -4.9 kcal/mol | -4.39 kcal/mol |  | -1.47 kcal/mol | -7.83 kcal/mol |  |  | 
CC(=O)N1c2ccc(-c3ccoc3)cc2[C@H](NC(=O)OC(C)C)C[C@@H]1C [Compound 12, Isopropyl ((2S,4R)-1-acetyl-6-(furan-3-yl)-2-methyl-1,2,3,4-tetrahydroquinolin-4-yl)carbamate] | -8.96 kcal/mol | -9.9 kcal/mol | 0.94 kcal/mol | -8.61 kcal/mol | -6.31 kcal/mol | -2.29 kcal/mol |  |  | 
CC(=O)N1c2ccc(-c3ccc[nH]3)cc2[C@H](NC(=O)OC(C)C)C[C@@H]1C [Compound 11, Isopropyl ((2S,4R)-1-acetyl-2-methyl-6-(1H-pyrrol-2-yl)-1,2,3,4-tetrahydroquinolin-4-yl)carbamate] | -9.08 kcal/mol | -6.9 kcal/mol | -2.18 kcal/mol | -9.82 kcal/mol | -6.89 kcal/mol | -2.92 kcal/mol |  |  | 
